Assay results published in patent US8586611B2 (priority 2005, dated 2013).

Key:
Type in all cases: in vivo
[1] = system: Erysiphe graminis f. sp. tritici; test: Test E: wheat powdery mildew, spray the day before inoculation (disease rating, 100 = 100% disease control); settings: spray the day before inoculation
Procedure, shortened: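 Protective test: spores of E. graminis f. sp. tritici dusted on wheat seedlings one day after run-off spraying of test suspension (acetone/water with 250 ppm surfactant; 200 ppm = 500 g/ha). Ratings after 7 days in growth chamber at 20° C, 100 = full control, 0 = none, relative to controls.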

Phytophthora infestans [2] = test: whole plant or invertebrate; settings: tomato late blight, spray the day before inoculation
Plasmopara viticola = test: Test B: grape downy mildew, spray 24 h after inoculation (disease rating, 100 = 100% disease control); settings: spray 24 h after inoculation
Procedure, shortened: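 This is a curative spray test, applied 24 h after inoculation. Compounds in 50/50 acetone–water with 250 ppm Trem 014 surfactant were sprayed to run-off on P. viticola-infected seedlings, with 200 ppm equating to 500 g/ha. Plants were kept 5 days in a 20 °C growth chamber, then 24 h humid, and scored 0–100 for disease control relative to controls.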

Phytophthora infestans [3] = test: whole plant or invertebrate; settings: tomato late blight, spray 17 h after inoculation
[4] = compounds without asterisk (not 40 or 10 ppm)

Row | Compound | Test E disease rating (100 = 100% disease control, 0 = no disease control) ([1]; tested at 40 ppm) [%] | Test C disease rating (100 = 100% disease control, 0 = no disease control) (Phytophthora infestans [2]; tested at 40 ppm) [%] | Test B disease rating (100 = 100% disease control, 0 = no disease control) (Plasmopara viticola; tested at 40 ppm) [%] | Test D disease rating (100 = 100% disease control, 0 = no disease control) (Phytophthora infestans [3]; tested at 40 ppm) [%] | Test E disease rating (100 = 100% disease control, 0 = no disease control) [1, 4] [%] | Test C disease rating (100 = 100% disease control, 0 = no disease control) (Phytophthora infestans [2]; [4]) [%] | Test B disease rating (100 = 100% disease control, 0 = no disease control) (Plasmopara viticola; [4]) [%] | Test D disease rating (100 = 100% disease control, 0 = no disease control) (Phytophthora infestans [3]; [4]) [%]
1 | Cc1cc(C(F)(F)F)nn1CC(=O)N1CCC(c2nc(C(=O)N(C)C3CCC(C)(C)c4ccccc43)cs2)CC1 (centres unmarked) [compound 199] | 0 | 100 | 99 | 99 | – | – | – | –
2 | Cc1cc(C(F)(F)F)nn1CC(=O)N1CCC(c2nc(C(=O)N(C)C3CCCc4cc(Cl)ccc43)cs2)CC1 (centres unmarked) [compound 201] | 0 | 100 | 98 | 99 | – | – | – | –
3 | Cc1cc(C(F)(F)F)nn1CC(=O)N1CCC(c2cc(C(=O)N(C)[C@@H]3CCCc4ccccc43)no2)CC1 [compound 202] | – | – | – | – | 0 | 100 | 97 | 99
4 | Cc1cc(C(F)(F)F)nn1CC(=O)N1CCC(c2cc(C(=O)N(C)[C@@H]3CCCc4ccccc43)on2)CC1 [compound 203] | – | – | – | – | 0 | 100 | 94 | 99
5 | Cc1cccnc1CC(=O)N1CCC(c2nc(C(=O)N(C)[C@@H]3CCCc4ccccc43)cs2)CC1 [compound 204] | – | – | – | – | 0 | 99 | 16 | 98
6 | CN(C(=O)c1csc(C2CCN(C(=O)Cc3ccccn3)CC2)n1)[C@@H]1CCCc2ccccc21 [compound 205] | – | – | – | – | 0 | 75 | 0 | 17
7 | Cc1cc(C(F)(F)F)nn1CC(=O)N1CCC(c2nc(C(=O)N(C)C3c4ccccc4CC3O)cs2)CC1 (centres unmarked) [compound 207] | – | – | – | – | 0 | 99 | 36 | 99
8 | CC(=O)OC1CCC(N(C)C(=O)c2csc(C3CCN(C(=O)Cn4nc(C(F)(F)F)cc4C)CC3)n2)c2ccccc21 (centres unmarked) [compound 212] | 0 | 100 | 97 | 99 | – | – | – | –
9 | COC1CCC(N(C)C(=O)c2csc(C3CCN(C(=O)Cn4nc(C(F)(F)F)cc4C)CC3)n2)c2ccccc21 (centres unmarked) [compound 213] | 0 | 100 | 99 | 99 | – | – | – | –
10 | CN(C(=O)c1csc(C2CCN(C(=O)Cc3cccc(Cl)n3)CC2)n1)[C@@H]1CCCc2ccccc21 [compound 214] | – | – | – | – | 0 | 99 | 98 | 99
11 | Cc1cc(C)nc(CC(=O)N2CCC(c3nc(C(=O)N(C)[C@@H]4CCCc5ccccc54)cs3)CC2)c1 [compound 215] | – | – | – | – | 0 | 100 | 0 | 99
